Patent publication US20250302927A1, “MODIFIED FACTOR XA POLYPEPTIDES AND METHODS OF USE” (The United States of America, as represented by the …, priority 2022, published 2025)

Columns and labels:
[1] = Inhibition of FXa variant chromogenic substrate cleavage by apixaban (IC50); format: biochemical, human; conditions: for IC50: apixaban, fixed amounts of FXa variants, increasing apixaban concentrations
Experimental: Chromogenic FXa activity assay: The FXa activity assay based on CS11(65)a chromogenic substrate (Biophen) was performed as described below. […] For each sample, substrate cleavage was calculated by taking the average rate over the time frame between 1 and 2 minutes.
Activity and inhibitory concentration were determined for a larger series of variants (FIGS. 2A and 2B). Activities for all variants were determined using the rate of chromogenic substrate cleavage in pure buffer system at different FXa concentrations. Variants were assigned into five brackets (FIG. 2A). […] To be assigned as potentially beneficial the combined scores were ***** but the individual score could not be less than **.

Male CD-1 mice = experiment: Tail clip bleeding model; format: in vivo; conditions: for Bleeding profile (bleeding graphs): apixaban 4 mg/kg, FIG. 4D
Experimental: Tail clip bleeding model: Animal experiments were performed at the U.S. FDA/CBER Division of Veterinary Services in accordance with the protocol approved by the institutional animal care and use committee (IACUC). Male CD-1 mice (Charles River Laboratories, Kingston, NY, USA) were 5-8 weeks old weighing 28-34 grams. […] After 5 minutes, 3 mm of tail were cut, after which the tail was immersed in a tube with predefined volume of 0.9% NaCl at 37° C. and allowed to bleed for 30 minutes under close observation. Blood loss was determined by measuring hemoglobin content and expressed as μl/mouse.
The design of the in vivo study in mice is depicted in FIG. 3B. […] The tails of the mice were clipped, and bleeding monitored by measuring bleeding time (FIG. 3C) and blood loss (FIG. 3D). […] All bleeding episodes were plotted using the length and number of episodes of bleeds for each individual mouse (FIG. 3E) to determine the bleeding profiles.
Additional experiments were performed in the mouse model, as above, but with the inclusion of andexanet alfa for comparison. The experimental strategy is depicted in FIG. 4A.

Factor VII (FVII) = molecular target: T1, Factor VII (FVII) (Homo sapiens, UniProt P08709); experiment: 1H NMR binding of apixaban to Factor VII; conditions: stoichiometric amounts, FIG. 1H
T1 sequence (P08709 61-466): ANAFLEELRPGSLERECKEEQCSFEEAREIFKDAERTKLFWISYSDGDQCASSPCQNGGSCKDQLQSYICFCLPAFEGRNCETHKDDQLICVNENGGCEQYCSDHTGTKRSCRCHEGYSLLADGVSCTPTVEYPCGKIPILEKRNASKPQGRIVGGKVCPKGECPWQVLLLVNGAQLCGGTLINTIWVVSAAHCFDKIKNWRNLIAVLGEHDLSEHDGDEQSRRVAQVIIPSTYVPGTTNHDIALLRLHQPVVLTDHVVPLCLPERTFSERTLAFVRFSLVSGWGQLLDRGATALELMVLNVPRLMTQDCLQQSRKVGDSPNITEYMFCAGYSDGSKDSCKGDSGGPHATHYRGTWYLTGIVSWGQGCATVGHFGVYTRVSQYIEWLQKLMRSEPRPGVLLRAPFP
Excerpt: FIGS. 1A-1H show design and functional characterization of low affinity FXa variants. FIG. 1A illustrates the computational strategy using RosettaDesign and homology insertion. […] Variants 69 and 70 are located on the same region between H311 and T318. […] FIG. 1F is a graph showing the rate of chromogenic substrate cleavage in pure buffer systems by FXa variants at different concentrations. […] Values for IC50±SD were obtained from fitted curves. […] The top spectrum is the result of superposition of ligand and protein signals with no alteration. The reference NMR spectrum (middle) contains only sharp signals, as expected for an NMR spectrum of a small molecule.
The final models allowed identification of clashes with apixaban. Following manual inspection of the models, 21 designs were selected. […] (ii) Two proteins were used as homology models to identify potential mutations to include as insertions. The human factor VII (FVII) (PDB ID: 1DAN) crystal structure was superimposed onto the human FXa (PDB ID: 2P16) crystal structure and differences in amino acid identity were analyzed. Final insertion identities were based on proximity to binding pocket and length. […] Seven FXa variants were selected based on this strategy. Some of these designs failed experimental validations. In a follow up round of homology-based designs, the insertions from Factor VII were decreased in length and number. […]

[2] = molecular target: T2, Tissue factor pathway inhibitor (TFPI) (Homo sapiens, UniProt P10646); experiment: ACTICHROME TFPI assay; format: biochemical; conditions: 4 nM variants vs 100 nM andexanet alfa, FIG. 5
T2 construct: BioMedica Diagnostics (assay kit)
T2 sequence (P10646 29-304): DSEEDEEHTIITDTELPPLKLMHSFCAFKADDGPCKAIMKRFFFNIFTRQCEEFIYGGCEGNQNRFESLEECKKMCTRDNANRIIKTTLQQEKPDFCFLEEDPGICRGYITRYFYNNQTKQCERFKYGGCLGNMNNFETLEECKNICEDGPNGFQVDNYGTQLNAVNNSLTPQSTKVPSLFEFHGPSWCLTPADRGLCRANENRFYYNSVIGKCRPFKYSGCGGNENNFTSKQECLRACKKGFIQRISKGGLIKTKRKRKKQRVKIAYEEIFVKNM
Experimental: Tissue factor pathway inhibitor (TFPI) plays a very important role in regulation of the procoagulant activity of tissue factor (TF). […] TFPI activity was determined using ACTICHROME® TFPI assay (BioMedica Diagnostics) according to manufacturer's protocol.

[3] = tested on: tissue factor (TF)-triggered pooled normal human plasma; experiment: Thrombin generation assay in plasma spiked with apixaban; format: biochemical
Experimental: Thrombin generation assay: The procoagulant activity of FXa variants was evaluated by a previously described thrombin generation assay in tissue factor (TF)-triggered pooled normal human plasma (Affinity Biologicals Inc, Ontario, Canada). […] Fluorescence (product of thrombin substrate consumption) was recorded in a kinetic mode at 37° C. using a Tecan Infinite F500 every 45 seconds for a period of 1.7 hours. In-house software was used to calculate calibrate thrombin generation assay (using an internal thrombin calibrator CAT® from Stago, Parsippany, NJ, USA) and calculate thrombin peak height parameter.

[4] = molecular target: Tissue factor pathway inhibitor (TFPI), P10646

## Variant 65: modified Factor Xa polypeptide, G440A, S1 subsite, SEQ ID NO: 8
[1]
  IC50: 151 to 250 nM

## COc1ccc(-n2nc(C(N)=O)c3c2C(=O)N(c2ccc(N4CCCCC4=O)cc2)CC3)cc1 [apixaban, reference compound]
Male CD-1 mice
  Bleeding profile (bleeding graphs): mostly uninterrupted flow of blood
Male CD-1 mice; tail clip, FIG. 3C
  Bleeding time, apixaban group compared to the control group: significantly greater
Factor VII (FVII)
  binding to FVII by NMR: does not bind to FVII

## Variant 61: modified Factor Xa polypeptide, W439A, S4 subsite, SEQ ID NO: 2
[1]; FIG. 1G
  fold higher IC50 values for apixaban compared to the wild-type FXa: ~350 fold
[1]
  IC50: > 251 nM
[2]
  response to TFPI (TFPI activity): much smaller response to TPFI compared to andexanet alfa
Male CD-1 mice; 1 mg/kg infused 5 min after apixaban, FIG. 3C
  Bleeding time: significantly reduced bleeding time
Male CD-1 mice; 1 mg/kg infused 5 min after apixaban, FIG. 3D
  Blood loss: successfully reversed the anticoagulant effect of apixaban
Male CD-1 mice
  Bleeding profile (bleeding graphs): multiple breaks in blood flowing from the tail cut
Male CD-1 mice; apixaban dose of 4 mg/kg, FIG. 4B
  Bleeding time: significant decrease
Male CD-1 mice; apixaban dose of 4 mg/kg, FIG. 4C
  Blood loss: significant decrease
[3]; activity in the presence of a fixed amount (1 μM) of apixaban, read-out: apparent Km
  Km: 1100 ± 171 nM
[3]; thrombin generation assay as worded
  potency compared with wild type FXa: less potent than wild type FXa

B1: FXa variant 70 (amino acids 312-317 replaced with STYVPG) (protein)
chain: GPANSFLEEMKKGHLERECMEETCSYEEAREVFEDSDKTNEFWNKYKDGDQCETSPCQNQGKCKDGLGEYTCTCLEGFEGKNCELFTRKLCSLDNGDCDQFCHEEQNSVVCSCARGYTLADNGKACIPTGPYPCGKQTLERRKRSVAQATSSSGEAPDSITWKPYDAADLDPTENPFDLLDFNQTQPERGDNNLTRIVGGQECKDGECPWQALLINEENEGFCGGTILSEFYILTAAHCLYQAKRFKVRVGDRNTEQEEGGEAVHEVEVVIKHSTYVPGTYDFDIAVLRLKTPITFRMNVAPACLPERDWAESTLMTQKTGIVSGFGRTHEKGRQSTRLKMLEVPYVDRNSCKLSSSFIITQNMFCAGYDTKQEDACQGDSGGPHVTRFKDTYFVTGIVSWGEGCARKGKYGIYTKVTAFLKWIDRSMKTRGLPKAKSHAPEVITSSPLK
[4]
  TFPI activity (ACTICHROME TFPI assay): both variants #61 and #70 showed much smaller response to TPFI compared to andexanet alfa
